Converted amounts (≈) assume the structure as drawn.
Key:
Type in all cases: functional
[1] = test system: Klebsiella aerogenes; assay: Antimicrobial activity against multidrug resistant Enterobacter aerogenes isolate 16 by broth dilution method in presence of 26.3 mg/L efflux pump inhibitor phenylalanine-arginine-beta-naphthylamide
[2] = test system: Klebsiella aerogenes; assay: Antimicrobial activity against multidrug resistant Enterobacter aerogenes isolate 17 by broth dilution method in presence of 26.3 mg/L efflux pump inhibitor phenylalanine-arginine-beta-naphthylamide
[3] = test system: Klebsiella aerogenes; assay: Antimicrobial activity against multidrug resistant Enterobacter aerogenes isolate 18 by broth dilution method in presence of 26.3 mg/L efflux pump inhibitor phenylalanine-arginine-beta-naphthylamide
[4] = test system: Klebsiella aerogenes; assay: Antimicrobial activity against multidrug resistant Enterobacter aerogenes isolate 22 by broth dilution method in presence of 26.3 mg/L efflux pump inhibitor phenylalanine-arginine-beta-naphthylamide
[5] = test system: Klebsiella aerogenes; assay: Antimicrobial activity against multidrug resistant Enterobacter aerogenes isolate 23 by broth dilution method in presence of 26.3 mg/L efflux pump inhibitor phenylalanine-arginine-beta-naphthylamide
[6] = test system: Klebsiella aerogenes; assay: Antimicrobial activity against multidrug resistant Enterobacter aerogenes isolate 24 by broth dilution method in presence of 26.3 mg/L efflux pump inhibitor phenylalanine-arginine-beta-naphthylamide
[7] = test system: Klebsiella aerogenes; assay: Antimicrobial activity against multidrug resistant Enterobacter aerogenes isolate 25 by broth dilution method in presence of 26.3 mg/L efflux pump inhibitor phenylalanine-arginine-beta-naphthylamide
[8] = test system: Klebsiella aerogenes; assay: Antimicrobial activity against multidrug resistant Enterobacter aerogenes isolate 26 by broth dilution method in presence of 26.3 mg/L efflux pump inhibitor phenylalanine-arginine-beta-naphthylamide
[9] = test system: Klebsiella aerogenes; assay: Antimicrobial activity against multidrug resistant Enterobacter aerogenes isolate 27 by broth dilution method in presence of 26.3 mg/L efflux pump inhibitor phenylalanine-arginine-beta-naphthylamide
[10] = test system: Klebsiella pneumoniae; assay: Antimicrobial activity against multidrug resistant Klebsiella pneumoniae isolate 3 by broth dilution method in presence of 26.3 mg/L efflux pump inhibitor phenylalanine-arginine-beta-naphthylamide
[11] = test system: Klebsiella pneumoniae; assay: Antimicrobial activity against multidrug resistant Klebsiella pneumoniae isolate 9 by broth dilution method in presence of 26.3 mg/L efflux pump inhibitor phenylalanine-arginine-beta-naphthylamide
[12] = test system: Klebsiella pneumoniae; assay: Antimicrobial activity against multidrug resistant Klebsiella pneumoniae isolate 10 by broth dilution method in presence of 26.3 mg/L efflux pump inhibitor phenylalanine-arginine-beta-naphthylamide
[13] = test system: Klebsiella pneumoniae; assay: Antimicrobial activity against multidrug resistant Klebsiella pneumoniae isolate 11 by broth dilution method in presence of 26.3 mg/L efflux pump inhibitor phenylalanine-arginine-beta-naphthylamide
[14] = test system: Klebsiella pneumoniae; assay: Antimicrobial activity against multidrug resistant Klebsiella pneumoniae isolate 12 by broth dilution method in presence of 26.3 mg/L efflux pump inhibitor phenylalanine-arginine-beta-naphthylamide
[15] = test system: Klebsiella pneumoniae; assay: Antimicrobial activity against multidrug resistant Klebsiella pneumoniae isolate 14 by broth dilution method in presence of 26.3 mg/L efflux pump inhibitor phenylalanine-arginine-beta-naphthylamide
[16] = test system: Klebsiella pneumoniae; assay: Antimicrobial activity against multidrug resistant Klebsiella pneumoniae isolate 15 by broth dilution method in presence of 26.3 mg/L efflux pump inhibitor phenylalanine-arginine-beta-naphthylamide
[17] = test system: Klebsiella pneumoniae; assay: Antimicrobial activity against multidrug resistant Klebsiella pneumoniae isolate 16 by broth dilution method in presence of 26.3 mg/L efflux pump inhibitor phenylalanine-arginine-beta-naphthylamide
[18] = test system: Klebsiella aerogenes; assay: Antimicrobial activity against multidrug resistant Enterobacter aerogenes ATCC 15038 by broth dilution method in presence of 26.3 mg/L efflux pump inhibitor phenylalanine-arginine-beta-naphthylamide
[19] = test system: Klebsiella aerogenes; assay: Antimicrobial activity against multidrug resistant Enterobacter aerogenes isolate 2 by broth dilution method
[20] = test system: Klebsiella aerogenes; assay: Antimicrobial activity against multidrug resistant Enterobacter aerogenes isolate 6 by broth dilution method
[21] = test system: Klebsiella aerogenes; assay: Antimicrobial activity against multidrug resistant Enterobacter aerogenes isolate 10 by broth dilution method
[22] = test system: Klebsiella aerogenes; assay: Antimicrobial activity against multidrug resistant Enterobacter aerogenes isolate 14 by broth dilution method
[23] = test system: Klebsiella aerogenes; assay: Antimicrobial activity against multidrug resistant Enterobacter aerogenes isolate 15 by broth dilution method
[24] = test system: Klebsiella aerogenes; assay: Antimicrobial activity against multidrug resistant Enterobacter aerogenes isolate 16 by broth dilution method
[25] = test system: Klebsiella aerogenes; assay: Antimicrobial activity against multidrug resistant Enterobacter aerogenes isolate 20 by broth dilution method
[26] = test system: Klebsiella aerogenes; assay: Antimicrobial activity against multidrug resistant Enterobacter aerogenes isolate 22 by broth dilution method
[27] = test system: Klebsiella aerogenes; assay: Antimicrobial activity against multidrug resistant Enterobacter aerogenes isolate 23 by broth dilution method
[28] = test system: Klebsiella aerogenes; assay: Antimicrobial activity against multidrug resistant Enterobacter aerogenes isolate 24 by broth dilution method
[29] = test system: Klebsiella aerogenes; assay: Antimicrobial activity against multidrug resistant Enterobacter aerogenes isolate 26 by broth dilution method
[30] = test system: Klebsiella pneumoniae; assay: Antimicrobial activity against multidrug resistant Klebsiella pneumoniae ATCC 11296 by broth dilution method
[31] = test system: Klebsiella pneumoniae; assay: Antimicrobial activity against multidrug resistant Klebsiella pneumoniae isolate 2 by broth dilution method
[32] = test system: Klebsiella pneumoniae; assay: Antimicrobial activity against multidrug resistant Klebsiella pneumoniae isolate 3 by broth dilution method
[33] = test system: Klebsiella pneumoniae; assay: Antimicrobial activity against multidrug resistant Klebsiella pneumoniae isolate 4 by broth dilution method
[34] = test system: Klebsiella pneumoniae; assay: Antimicrobial activity against multidrug resistant Klebsiella pneumoniae isolate 6 by broth dilution method
[35] = test system: Klebsiella pneumoniae; assay: Antimicrobial activity against multidrug resistant Klebsiella pneumoniae isolate 8 by broth dilution method
[36] = test system: Klebsiella pneumoniae; assay: Antimicrobial activity against multidrug resistant Klebsiella pneumoniae isolate 11 by broth dilution method
[37] = test system: Klebsiella pneumoniae; assay: Antimicrobial activity against multidrug resistant Klebsiella pneumoniae isolate 12 by broth dilution method
[38] = test system: Klebsiella pneumoniae; assay: Antimicrobial activity against multidrug resistant Klebsiella pneumoniae isolate 15 by broth dilution method
[39] = test system: Klebsiella aerogenes; assay: Antimicrobial activity against multidrug resistant Enterobacter aerogenes ATCC 15038 by broth dilution method
[40] = test system: Klebsiella aerogenes; assay: Antimicrobial activity against multidrug resistant Enterobacter aerogenes isolate 1 by broth dilution method in presence of 26.3 mg/L efflux pump inhibitor phenylalanine-arginine-beta-naphthylamide
[41] = test system: Klebsiella aerogenes; assay: Antimicrobial activity against multidrug resistant Enterobacter aerogenes isolate 2 by broth dilution method in presence of 26.3 mg/L efflux pump inhibitor phenylalanine-arginine-beta-naphthylamide
[42] = test system: Klebsiella aerogenes; assay: Antimicrobial activity against multidrug resistant Enterobacter aerogenes isolate 3 by broth dilution method in presence of 26.3 mg/L efflux pump inhibitor phenylalanine-arginine-beta-naphthylamide
[43] = test system: Klebsiella aerogenes; assay: Antimicrobial activity against multidrug resistant Enterobacter aerogenes isolate 4 by broth dilution method in presence of 26.3 mg/L efflux pump inhibitor phenylalanine-arginine-beta-naphthylamide
[44] = test system: Klebsiella aerogenes; assay: Antimicrobial activity against multidrug resistant Enterobacter aerogenes isolate 7 by broth dilution method in presence of 26.3 mg/L efflux pump inhibitor phenylalanine-arginine-beta-naphthylamide
[45] = test system: Klebsiella aerogenes; assay: Antimicrobial activity against multidrug resistant Enterobacter aerogenes isolate 11 by broth dilution method in presence of 26.3 mg/L efflux pump inhibitor phenylalanine-arginine-beta-naphthylamide
[46] = test system: Klebsiella aerogenes; assay: Antimicrobial activity against multidrug resistant Enterobacter aerogenes isolate 12 by broth dilution method in presence of 26.3 mg/L efflux pump inhibitor phenylalanine-arginine-beta-naphthylamide
[47] = test system: Klebsiella aerogenes; assay: Antimicrobial activity against multidrug resistant Enterobacter aerogenes isolate 14 by broth dilution method in presence of 26.3 mg/L efflux pump inhibitor phenylalanine-arginine-beta-naphthylamide

O=C(N[C@H](CO)[C@H](O)c1ccc([N+](=O)[O-])cc1)C(Cl)Cl [CHLORAMPHENICOL]
MIC [1]: 64 µg/mL
MIC [2]: 64 µg/mL
MIC [3]: 4 µg/mL
MIC [4]: 128 µg/mL
MIC [5]: 64 µg/mL
MIC [6]: 64 µg/mL
MIC [7]: 64 µg/mL
MIC [8]: 32 µg/mL
MIC [9]: 128 µg/mL
MIC [10]: 4 µg/mL
MIC [11]: 8 µg/mL
MIC [12]: 2 µg/mL
MIC [13]: 4 µg/mL
MIC [14]: 2 µg/mL
MIC [15]: 2 µg/mL
MIC [16]: 2 µg/mL
MIC [17]: 4 µg/mL
MIC [18]: 1 µg/mL
MIC [19]: 512 µg/mL (≈ 1580 µM)
MIC [20]: 256 µg/mL (≈ 792 µM)
MIC [21]: 1020 µg/mL (≈ 3170 µM)
MIC [22]: 512 µg/mL (≈ 1580 µM)
MIC [23]: 512 µg/mL (≈ 1580 µM)
MIC [24]: 512 µg/mL (≈ 1580 µM)
MIC [25]: 1020 µg/mL (≈ 3170 µM)
MIC [26]: 1020 µg/mL (≈ 3170 µM)
MIC [27]: 512 µg/mL (≈ 1580 µM)
MIC [28]: 512 µg/mL (≈ 1580 µM)
MIC [29]: 256 µg/mL (≈ 792 µM)
MIC [30]: 4 µg/mL (≈ 12.4 µM)
MIC [31]: 256 µg/mL (≈ 792 µM)
MIC [32]: 4 µg/mL (≈ 12.4 µM)
MIC [33]: 4 µg/mL (≈ 12.4 µM)
MIC [34]: 32 µg/mL (≈ 99 µM)
MIC [35]: 32 µg/mL (≈ 99 µM)
MIC [36]: 8 µg/mL (≈ 24.8 µM)
MIC [37]: 64 µg/mL (≈ 198 µM)
MIC [38]: 8 µg/mL (≈ 24.8 µM)
MIC [39]: 2 µg/mL (≈ 6.19 µM)
MIC [40]: 128 µg/mL
MIC [41]: 64 µg/mL
MIC [42]: 128 µg/mL
MIC [43]: 128 µg/mL
MIC [44]: 128 µg/mL
MIC [45]: 64 µg/mL
MIC [46]: 128 µg/mL
MIC [47]: 64 µg/mL

Reference: ChEMBL document CHEMBL1649134, “Occurrence of efflux mechanism and cephalosporinase variant in a population of Enterobacter aerogenes and Klebsiella pneumoniae isolates producing extended-spectrum beta-lactamases” (2009)
